Data taken from ChEMBL document CHEMBL1201862, “PubChem BioAssay data set” (2004).
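Results reflect a 48-hour exposure of cells in 96-well plates to compound at five concentrations. The concentration for 50% growth inhibition is given as GI50.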 Active and inactive are the calls of the source. Cut-off read from the data, not from the text of the source: active = GI50 up to about 1.1 µM and inactive = higher.

Columns and labels:
Experiment in all cases: growth of human tumour cells (NCI), 48 h
HOP-62 = test system: HOP-62
BT-549 = test system: BT-549
UO-31 = test system: UO-31
HT-29 = test system: HT-29
ACHN = test system: ACHN
MOLT-4 = test system: MOLT-4
HOP-92 = test system: HOP-92
KM12 = test system: KM12
HCC 2998 = test system: HCC 2998
SW-620 = test system: SW-620
HCT-15 = test system: HCT-15
TK-10 = test system: TK-10
SN12C = test system: SN12C
NCI-H460 = test system: NCI-H460
SK-MEL-28 = test system: SK-MEL-28
SK-MEL-5 = test system: SK-MEL-5
OVCAR-8 = test system: OVCAR-8
SNB-75 = test system: SNB-75
PC-3 = test system: PC-3
SNB-19 = test system: SNB-19
DU-145 = test system: DU-145
A498 = test system: A498
HCT-116 = test system: HCT-116
OVCAR-5 = test system: OVCAR-5
A549 = test system: A549
LOX IMVI = test system: LOX IMVI
SF-295 = test system: SF-295
U-251 = test system: U-251
MDA-MB-435 = test system: MDA-MB-435
MCF7 = test system: MCF7
RPMI-8226 = test system: RPMI-8226
Hs-578T = test system: Hs-578T
EKVX = test system: EKVX
OVCAR-4 = test system: OVCAR-4
NCI/ADR-RES = test system: NCI/ADR-RES
CCRF-CEM = test system: CCRF-CEM
CAKI-1 = test system: CAKI-1
M14 = test system: M14
IGROV-1 = test system: IGROV-1
MDA-N = test system: MDA-N
Malme-3M = test system: Malme-3M
SF-268 = test system: SF-268
HL-60 = test system: HL-60
UACC-257 = test system: UACC-257
UACC-62 = test system: UACC-62
MDA-MB-231 = test system: MDA-MB-231
T47D = test system: T47D
COLO 205 = test system: COLO 205
NCI-H522 = test system: NCI-H522
SK-MEL-2 = test system: SK-MEL-2
SR = test system: SR
OVCAR-3 = test system: OVCAR-3
786-0 = test system: 786-0
NCI-H23 = test system: NCI-H23
SF-539 = test system: SF-539
K562 = test system: K562
NCI-H226 = test system: NCI-H226

Measured: GI50

OCC1OC(n2cnc3c2N=CNC[C@H]3O)C(Cl)C1O (stereo partly specified)
> 100 µM: HCT-15
inactive: HOP-62 > 100 µM | BT-549 > 100 µM | UO-31 > 100 µM | HT-29 > 100 µM | ACHN > 100 µM | MOLT-4 94.2 µM | HOP-92 > 100 µM | KM12 > 100 µM | HCC 2998 > 100 µM | SW-620 > 100 µM | TK-10 > 100 µM | SN12C > 100 µM | NCI-H460 > 100 µM | SK-MEL-28 > 100 µM | SK-MEL-5 > 100 µM | OVCAR-8 > 100 µM | SNB-75 > 100 µM | PC-3 > 100 µM | SNB-19 > 100 µM | DU-145 > 100 µM | A498 > 100 µM | HCT-116 > 100 µM | OVCAR-5 > 100 µM | A549 > 100 µM | LOX IMVI > 100 µM | SF-295 > 100 µM | U-251 > 100 µM | MDA-MB-435 > 100 µM | MCF7 > 100 µM | RPMI-8226 > 100 µM | Hs-578T > 100 µM | EKVX > 100 µM | OVCAR-4 > 100 µM | NCI/ADR-RES > 100 µM | CCRF-CEM > 100 µM | CAKI-1 > 100 µM | M14 > 100 µM | IGROV-1 > 100 µM | MDA-N > 100 µM | Malme-3M > 100 µM | SF-268 > 100 µM | HL-60 > 100 µM | UACC-257 > 100 µM | UACC-62 > 100 µM | MDA-MB-231 > 100 µM | T47D > 100 µM | COLO 205 > 100 µM | NCI-H522 > 100 µM | SK-MEL-2 > 100 µM | SR > 100 µM | OVCAR-3 > 100 µM | 786-0 > 100 µM | NCI-H23 > 100 µM | SF-539 > 100 µM

Cc1nc2ccccc2[nH]/c1=N/Nc1ccccc1
inactive: HOP-62 23.3 µM | BT-549 20.7 µM | K562 17.9 µM | UO-31 18.8 µM | ACHN 30.5 µM | HOP-92 3.8 µM | KM12 14.5 µM | HCC 2998 38.9 µM | SW-620 40.6 µM | TK-10 > 100 µM | SN12C 26.4 µM | NCI-H460 35.6 µM | SK-MEL-28 26.5 µM | SK-MEL-5 14 µM | OVCAR-8 20.3 µM | SNB-75 18.1 µM | PC-3 26.1 µM | SNB-19 45.1 µM | DU-145 22.7 µM | A498 31.8 µM | HCT-116 25.8 µM | OVCAR-5 26.7 µM | A549 21.5 µM | LOX IMVI 23.3 µM | SF-295 18.6 µM | U-251 48.3 µM | MDA-MB-435 14.8 µM | MCF7 12.3 µM | RPMI-8226 8.2 µM | Hs-578T 31.1 µM | EKVX 4.17 µM | OVCAR-4 9.66 µM | NCI/ADR-RES 15 µM | CCRF-CEM 4.23 µM | CAKI-1 27 µM | M14 20.2 µM | IGROV-1 3.73 µM | MDA-N 19.5 µM | Malme-3M 20.3 µM | SF-268 27.6 µM | HL-60 11.7 µM | UACC-257 57.9 µM | NCI-H226 18.3 µM | UACC-62 16.3 µM | MDA-MB-231 28 µM | T47D 2.11 µM | NCI-H522 26.1 µM | SK-MEL-2 30.4 µM | SR 19.3 µM | OVCAR-3 14 µM | 786-0 25.2 µM | NCI-H23 18.1 µM | SF-539 44.5 µM
active: HT-29 0.0417 µM | COLO 205 0.108 µM
18.9 µM: HCT-15
